Test results from US20110045073A1, “METHODS AND COMPOSITIONS OF SPHINGOLIPID FOR PREVENTING AND TREATING MICROBIAL INFECTIONS” (priority 2008, published 2011).

Assays:
Format in all cases: cell-based, Candida albicans
C. albicans (ATTC 10231) [1] = assay: microdilution viability assay (plate assay, CFU count); conditions: 1 mM PPB, 60 min at 30° C., CFUs counted
Method: C. albicans (ATTC 10231), cultured aerobically at 30° C. on Sabouraud dextrose agar plates (SDA, Oxoid, Hampshire, UK) was suspended in 25 ml of Sabouraud dextrose broth in a 100 ml erlenmeyer flask. After 20 h of incubation at 30° C., 1 ml from this suspension was sub-cultured for 1-2 h in 20 ml of Sabouraud dextrose broth, to obtain a mid-log phase culture. Cells were washed twice in 1 mM potassium phosphate (PPB) or 5 mM Tris (pH 7.2), and resuspended in the same buffer to a cell density of 2 McFarland (McF) (approximately 10^7 cells/ml). The effects of PHS and Hst5 on the viability of C. albicans were determined in a microdilution viability assay. 50 μl aliquots from a mid-log phase culture of C. albicans were incubated with equal volumes of either peptide or PHS solutions (0.3 to 100 μM) and incubated at 30° C. for 60 min. The incubation mixtures were appropriately diluted (200- to 500-fold) in PBS and 25 μl aliquots were plated on SDA. After 48 h incubation at 30° C. the numbers of CFUs were counted. All experiments were repeated at least three times in duplo. The effect of PHS-treatment on the viability of C. albicans was determined in a micro-dilution viability assay, at the concentration range 0-500 μM (FIG. 1). For comparison the effect of treatment with Hst5 (0-50 μM) is shown. […]

C. albicans = assay: synergism between histatin 5 and PHS: PI fluorescence after PHS preincubation, energy-rich (NaCl) or energy-depleted (NaN3); conditions: for extent of additional increase in PI-fluorescence on addition of Hst5: 25 μM PHS preincubation
Method: C. albicans (ATTC 10231), cultured aerobically at 30° C. on Sabouraud dextrose agar plates (SDA, Oxoid, Hampshire, UK) was suspended in 25 ml of Sabouraud dextrose broth in a 100 ml erlenmeyer flask. After 20 h of incubation at 30° C., 1 ml from this suspension was sub-cultured for 1-2 h in 20 ml of Sabouraud dextrose broth, to obtain a mid-log phase culture. Cells were washed twice in 1 mM potassium phosphate (PPB) or 5 mM Tris (pH 7.2), and resuspended in the same buffer to a cell density of 2 McFarland (McF) (approximately 10^7 cells/ml). Cells were suspended in 5 mM Tris buffer (pH 7.2), supplemented with either 5 mM NaCl or 5 mM NaN3. These suspensions were subsequently incubated with 0, 10, 50 and 100 μM PHS dissolved in 5 mM Tris buffer. After 60 minutes of incubation at 30° C., PI was added, and subsequently dilution series of Hst 5 in the corresponding buffer were added. Final concentration of PI was 10 μM, final concentrations of Hst5 ranged between 0 and 50 μM, final cell density was 10^7 cells/ml and final PHS concentrations were 0, 5, 25 and 50 μM. After 0, 20, 40 and 60 minutes the PI fluorescence was monitored at excitation and emission wavelengths of 544 and 620 nm, respectively, in a Fluostar Galaxy microplate fluorimeter (BMFG Labtechnologies, Offenburg, Germany).

C. albicans (ATTC 10231) [2] = assay: membrane-disruptive activity, propidium iodide fluorescence (PI assay); conditions: 1 mM PPB, after 15 and 60 minutes
Method: C. albicans (ATTC 10231), cultured aerobically at 30° C. on Sabouraud dextrose agar plates (SDA, Oxoid, Hampshire, UK) was suspended in 25 ml of Sabouraud dextrose broth in a 100 ml erlenmeyer flask. After 20 h of incubation at 30° C., 1 ml from this suspension was sub-cultured for 1-2 h in 20 ml of Sabouraud dextrose broth, to obtain a mid-log phase culture. Cells were washed twice in 1 mM potassium phosphate (PPB) or 5 mM Tris (pH 7.2), and resuspended in the same buffer to a cell density of 2 McFarland (McF) (approximately 10^7 cells/ml).
Membrane-disruptive activity of Hst5 and phytosphingosine (PHS) was determined by monitoring the fluorescence enhancement of propidium iodide (Invitrogen, Breda, The Netherlands) in Hst5- or PHS treated cells. The membrane impermeant propidium iodide (PI) only enters membrane-compromised cells, after which the fluorescence of this probe is enhanced 20-30-fold due to its binding to nucleic acids.
Cells obtained by the method described above were suspended in 1 mM PPB buffer (pH 7.2) supplemented with PI (final concentration 10 μM) and subsequently added to two-fold serial dilutions of Hst5 (50 μM down to 0.045 μM) or PHS (500 down to 0.5 μM). Final cell density in the assay was 1 McF. […]

Row | Compound | concentration at which complete killing was reached (C. albicans (ATTC 10231) [1]) [µM] | PI fluorescence induced by PHS preincubation alone (C. albicans; 25 μM PHS in the presence of NaN3, vs control with NaCl) | effect of PHS pretreatment on sensitivity of C. albicans to Hst5 (C. albicans; non-lethal dosages PHS, in particular energy-depleted conditions) | effect of PHS preincubation on Hst5-mediated influx of PI (C. albicans; preincubation with 25 or 50 μM PHS, NaCl, 6.1 μM Hst5, relative to 0 μM PHS) | extent of additional increase in PI-fluorescence on addition of Hst5 (C. albicans; NaCl control (energy-rich)) [fluorescence units] | extent of additional increase in PI-fluorescence on addition of Hst5 (C. albicans; NaN3 (energy-depleted)) | effect of energy-depletion on sensitivity of C. albicans to the substance (C. albicans; 5 mM NaN3 vs 5 mM NaCl in 5 mM Tris, t=0 and t=20 min) | lowest Hst5 concentration with immediate additional increase in PI fluorescence (C. albicans; after pre-incubation with 25 μM PHS, NaCl, t=0) [µM] | concentration needed to induce uptake of PI, Hst5 compared with PHS (C. albicans (ATTC 10231) [2])
1 | CCCCCCCCCCCCCC[C@@H](O)[C@@H](O)[C@@H](N)CO [PHS, phytosphingosine] | 250 | induces an increase in PI fluorescence, comparable to that of the control | increases its sensitivity to Hst5 | instantaneously accelerates the Hst5-mediated influx of PI |  |  |  |  | 
2 | histatin 5 (DSHAKRHHGYKRKFHEKHHSHRGY) [Hst5] | 10 |  |  |  | 1000 | approx 500 fluorescence units | energy-depletion protects C. albicans against Hst5 | 0.75 | induced the uptake of PI at much lower concentrations
